Laboratory results published in PMC9285603, “Flavan‐3‐ol Microbial Metabolites Modulate Proteolysis in Neuronal Cells Reducing Amyloid‐beta (1‐42) Levels” (Molecular Nutrition & Food Research, 2021).
Like-named read-outs stand apart in the source and are kept apart here.

How the values were obtained:
Cathepsin B = target: T1, Cathepsin B (Homo sapiens, UniProt P07858); experiment: Cathepsin B activity in cell lysates (Z‐Arg‐Arg‐AMC); assay type: cell-based; details: APPmut cells, 6 h treatment
T1 construct: The mixture for cathepsin B, containing 1 µg of cell lysate; endogenous in cells; host or cells: SH-SY5Y (control, APPwt- and APPmut-transfected)
Protocol: (§1) Cell viability was evaluated with the 3‐(4,5‐dimethylthiazol‐2‐yl)‐2,5‐diphenyltetrazolium bromide assay (MTT).^[ [25] ^] Upon 6 h and 24 h treatment with increasing concentrations (0‐10 µM) of C1, C2, and C3 dissolved in DMSO, cells were washed in PBS, pH 7.5, and then MTT (final concentration 0.5 mg mL^−1) was added to the culture medium without FBS and incubated for 2 h at 37 °C. The medium was then removed and replaced with 100 µL of DMSO. The optical density was measured at 550 nm in a microtiter plate reader. At least six cultures were utilized for each time point. Neuroblastoma cells, control and transfected cells, were then treated with C1, C2, and C3 for 6 and 24 h at the concentrations 0–1–5 µM. Compounds were dissolved in DMSO and then added to cell culture media. Control cells were included in each time point. After removing the medium and washing with cold phosphate buffered saline (PBS), cells were harvested in 4 mL of PBS and centrifuged at 1600 × g for 5 min. The pellet was resuspended in lysis buffer (20 mM Tris, pH 7.4, 250 mM sucrose, 1 mM EDTA, and 5 mM β‐mercaptoethanol) and passed through a 29‐gauge needle at least ten times. Lysates were centrifuged at 12 000×g for 15 min and the supernatants were stored at ‐80°C until use. Protein concentration was determined by the method of Bradford using bovine serum albumin (BSA) as standard.^[ [26] ^]
Cathepsin B proteolytic activity was measured using the fluorogenic peptide Z‐Arg‐Arg‐AMC at a final concentration of 50 µM, as previously described.^[ [24] ^] The mixture for cathepsin B, containing 1 µg of cell lysate, was pre‐incubated in 100 mM phosphate buffer pH 6.0, 1 mM EDTA, and 2 mM dithiothreitol for 5 min at 30°C. Upon the addition of the substrate, the mixture was incubated for 15 min at 30°C. The fluorescent signal released by the hydrolyzed 7‐amino‐4‐methyl‐coumarin (AMC, λexc = 365 nm, λem = 449 nm) was detected on a SpectraMax Gemini XPS microplate reader.

Aβ(1‐42) = experiment: Quantification of Aβ(1‐42) by ELISA in medium and cellular extracts; assay type: cell-based, human; details: 24 h, 5 µM; for Aβ(1‐42) levels: APPwt cells
Protocol: Levels of Aβ(1‐42) secreted into the medium and present in cellular extracts were determined after PVLs treatment using the Human Aβ42 solid‐phase sandwich ELISA Kit from Invitrogen, following the manufacturer's instructions. For Aβ quantification in cell medium, culture medium was collected after neuronal cells treatment, centrifuged at 300 × g for 10 min to remove non adherent cells and debris and then treated with protease inhibitors.

[1] = system: ubiquitin‐protein conjugates and p27; experiment: Western blot of proteasome substrates (ubiquitin‐protein conjugates, p27); assay type: cell-based, human
Protocol: as §1
(§2) Proteins were resolved on SDS–PAGE and electroblotted onto PVDF membranes. Membranes with transferred proteins were incubated with the primary monoclonal antibody and successively with the specific peroxidase conjugated secondary antibody. Monoclonal antibodies against Ub and p27 were obtained from Santa Cruz Biotechnology, Inc. (Heidelberg, Germany). SQSTM1/p62 (sequestosome 1, herein p62) mouse monoclonal antibody was from Sigma‐Aldrich S.r.L. (Milano, Italy) and the anti‐LC3B antibody was purchased from Cell Signaling Technology, Inc. The immunoblot detection was performed with ECL Western blotting detection reagents using a ChemiDoc MP system. Each gel was loaded with molecular weight markers in the range of 12 to 225 kDa (GE Healthcare). Glyceraldehyde‐3‐phosphate dehydrogenase (GAPDH) was utilized as a control for equal protein loading: membranes were stripped and re‐probed with anti‐GAPDH monoclonal antibody (Santa Cruz Biotechnology, Heidelberg, Germany). Stripping buffer contained 200 mM glycine, 0.1% SDS, and 1% Tween 20. Immunoblot images were quantified using ImageJ 1.52p software (NIH, USA).

LC3II and p62 = experiment: Western blot of autophagy markers (LC3II, p62); assay type: cell-based, human; details: for levels of LC3II: 6 h
Protocol: as §1
as §2, with “Each gel was loaded with molecular weight markers in the range of 12 to 225 kDa (GE Healthcare). Glyceraldehyde‐3‐phosphate dehydrogenase (GAPDH) was utilized as a control for equal protein loading: membranes were stripped and re‐probed with anti‐GAPDH monoclonal antibody (Santa Cruz Biotechnology, Heidelberg, Germany). Stripping buffer contained 200 mM glycine, 0.1% SDS, and 1% Tween 20.” left out

[2] = target: T2, constitutive 20S proteasome (Bos taurus, UniProt Q2TBP0+Q32KL2+Q3MHN0); experiment: In vitro activity assays on isolated constitutive 20S proteasome (fluorogenic peptides); assay type: biochemical; details: isolated 20S from bovine brain
T2 construct: isolated constitutive and immunoproteasomes purified from bovine brain and thymus, respectively; from tissue; host or cells: bovine brain
Protocol: (§3) PVLs effects on the 20S constitutive and immunoproteasome peptidase activities were measured through in vitro assays performed with fluorogenic peptides as substrates. Isolation and purification of the 20S proteasome from bovine brain and thymus were performed as previously reported.^[ [23] ^] The incubation mixture contained the compound at concentrations ranging from 0.0 to 10 µM, 1 µg of the isolated 20S proteasome, the appropriate substrate (5 µM final concentration), and 50 mm Tris/HCl (pH 8.0), up to a final volume of 100 µL. Purified proteasomes were always preincubated with each compound at 37°C for 30 min before the fluorogenic peptide substrates were added to the reaction mixture. Final incubation was performed at 37°C, and after 60 min the fluorescence of the hydrolyzed 7‐amino‐4‐methyl‐coumarin (AMC) and 4‐aminobenzoic acid (pAB) was detected (AMC, λexc = 365 nm, λem = 449 nm; pAB, λexc = 304 nm, λem = 664 nm) on a SpectraMax Gemini XPS microplate reader.
(§4) PVLs were first tested on isolated constitutive and immunoproteasomes purified from bovine brain and thymus, respectively. The constitutive 20S proteasome is a barrel‐shaped complex of four stacked rings, made of seven α subunits in the two outer rings and seven β subunits in the two inner rings, the latter bearing the catalytically active sites in the β1, β2, and β5 subunits. Treatment with inflammatory cytokines induces the transcription of three additional active subunits, known as β1i, β2i, and β5i, that replace constitutive homologues during proteasome assembly.^[ [28] ^] Proteasome proteolytic activities depend on the hydroxyl group of the N‐terminal threonine (Thr‐1) residue, responsible for cleaving peptides through a nucleophilic attack.^[ [29] ^]

26S proteasome = target: T3, 26S proteasome (Homo sapiens, UniProt P28074); experiment: 26S proteasome ChT‐L activity in cell lysates (fluorimetric); assay type: cell-based; details: cellular lysates, 24‐h exposure; versus untreated cells
T3 construct: ChT‐L activity of the 26S proteasome measured in control and transfected SH‐SY5Y cells; endogenous in cells; host or cells: SH-SY5Y (control, APPwt- and APPmut-transfected)
T3 sequence (P28074 60-263): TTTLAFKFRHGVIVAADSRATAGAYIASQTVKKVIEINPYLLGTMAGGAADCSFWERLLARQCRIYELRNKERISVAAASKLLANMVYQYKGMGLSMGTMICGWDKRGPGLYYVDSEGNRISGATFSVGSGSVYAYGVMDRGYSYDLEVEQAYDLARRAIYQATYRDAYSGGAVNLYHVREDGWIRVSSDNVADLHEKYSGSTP
Protocol: (§5) Cell viability was evaluated with the 3‐(4,5‐dimethylthiazol‐2‐yl)‐2,5‐diphenyltetrazolium bromide assay (MTT).^[ [25] ^] Upon 6 h and 24 h treatment with increasing concentrations (0‐10 µM) of C1, C2, and C3 dissolved in DMSO, cells were washed in PBS, pH 7.5, and then MTT (final concentration 0.5 mg mL^−1) was added to the culture medium without FBS and incubated for 2 h at 37 °C. The medium was then removed and replaced with 100 µL of DMSO. The optical density was measured at 550 nm in a microtiter plate reader. At least six cultures were utilized for each time point. […] Protein concentration was determined by the method of Bradford using bovine serum albumin (BSA) as standard.^[ [26] ^]
(§6) The effects on the proteasome system were evaluated through fluorimetric assays, as previously reported,^[ [27] ^] using the following synthetic substrates: Leu‐Leu‐Val‐Tyr‐AMC for ChT‐L, Leu‐Ser‐Thr‐Arg‐AMC for T‐L, Leu‐Leu‐Glu‐AMC for PGPH, and Gly‐Pro‐Ala‐Leu‐Ala‐AMC for BrAAP, whose test is performed with the addition of the aminopeptidase‐N (AP‐N). […] Incubation was performed at 37 °C, and after 60 min, the fluorescence of the hydrolyzed 7‐amino‐4‐methyl‐coumarin (AMC) was recorded (AMC, λexc = 365 nm, λem = 449 nm) on a SpectraMax Gemini XPS microplate reader. […] The fluorescence values of lysates were subtracted of the values of control assays in the presence of the two inhibitors.

20S immunoproteasome = target: T4, 20S immunoproteasome (Bos taurus, UniProt Q3SZC2+Q3T0T1+Q3T112); experiment: In vitro activity assays on isolated immunoproteasome (fluorogenic peptides); assay type: biochemical; details: isolated 20S from bovine thymus
T4 construct: isolated constitutive and immunoproteasomes purified from bovine brain and thymus, respectively; from tissue; host or cells: bovine thymus
Protocol: as §3, §4

[3] = system: SH‐SY5Y control and transfected cells; experiment: MTT cell viability assay; assay type: cell-based, human; details: 24 h exposure, 10 µM, data not shown
Protocol: as §1

20S proteasome = target: T5, 20S proteasome (Homo sapiens, UniProt P28072+P28074+Q99436); experiment: 20S proteasome activity in cell lysates (fluorimetric); assay type: cell-based; details: cellular lysates, 1 and 5 µM, 6 and 24 h
T5 construct: The incubation mixture contained 1 µg of cell lysate, the appropriate substrate; endogenous in cells; host or cells: SH-SY5Y (control, APPwt- and APPmut-transfected); only APP is transfected, the proteasome is endogenous
T5 sequence (P28074 60-263): T3 sequence (P28074 60-263)
T5 sequence (Q99436 44-277): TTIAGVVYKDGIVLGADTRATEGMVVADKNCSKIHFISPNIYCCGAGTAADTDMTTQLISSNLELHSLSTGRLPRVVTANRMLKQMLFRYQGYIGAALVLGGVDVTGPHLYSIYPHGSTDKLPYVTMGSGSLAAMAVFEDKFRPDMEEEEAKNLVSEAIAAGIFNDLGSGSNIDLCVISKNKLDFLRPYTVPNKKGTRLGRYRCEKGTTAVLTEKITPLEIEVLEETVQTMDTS
T5 sequence (P28072 1-239): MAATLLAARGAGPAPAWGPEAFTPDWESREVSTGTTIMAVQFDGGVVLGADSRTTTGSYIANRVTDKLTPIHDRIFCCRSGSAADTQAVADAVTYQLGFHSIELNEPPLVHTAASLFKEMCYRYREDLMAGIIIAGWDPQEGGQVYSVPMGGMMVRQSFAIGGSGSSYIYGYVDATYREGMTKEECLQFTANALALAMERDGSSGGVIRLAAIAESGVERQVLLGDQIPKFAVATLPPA
Protocol: as §5, §6

brown adipocytes = system: brown adipocytes; set-up: method as in PMID 28276197; details: cited from earlier work
[4] = system: human neuroblastoma SH‐SY5Y cells; set-up: method as in PMID 28891114; details: cited from earlier work
[5] = set-up: method as in PMID 28891114; details: compared with parental compound EGCG; cited from earlier work
[6] = 6 h exposure, control and transfected SH‐SY5Y cells
[7] = 24 h treatment, mainly in APPmut cells exposed to C1
[8] = 30 min preincubation, 37°C, read-out: IC50 ChT‐L Constitutive proteasome
[9] = read-out: IC50 BrAAP Constitutive proteasome
[10] = read-out: IC50 PGPH Constitutive proteasome
[11] = read-out: IC50 T‐L Constitutive proteasome
[12] = 30 min preincubation, 37°C, read-out: IC50 ChT‐L Immunoproteasome
[13] = read-out: IC50 BrAAP Immunoproteasome
[14] = read-out: IC50 PGPH Immunoproteasome
[15] = read-out: IC50 T‐L Immunoproteasome

Compound | inhibition at 5 µM (Cathepsin B) [%] | levels of Ub‐conjugates and p27 [1, 6] | levels of Ub‐conjugates and p27 [1, 7] | IC50 [2, 8] [nM] | IC50 [2, 9] [nM] | IC50 [2, 10] [nM] | IC50 [2, 11] [nM] | ChT‐L residual activity, 26S proteasome (26S proteasome) [%] | IC50 (20S immunoproteasome; [12]) [nM] | IC50 (20S immunoproteasome; [13]) [nM] | IC50 (20S immunoproteasome; [14]) [nM] | IC50 (20S immunoproteasome; [15]) [nM] | Aβ(1‐42) levels (Aβ(1‐42)) | also measured
O=C1CCC(Cc2ccc(OS(=O)(=O)O)c(O)c2)O1 (centres unmarked) [Compound C3, 5‐(3ʹ‐hydroxyphenyl)‐γ‐valerolactone‐4ʹ‐sulfate] | 30 | no particular effect | evident increase | 109 ± 11 | 302 ± 27.8 | 104 ± 11 | 56.8 ± 2.3 | 60 | 1450 ± 153 | 88.4 ± 7 | 72.7 ± 5.7 | 588 ± 47.6 |  | reduction of Aβ(1‐42) in cell extracts (Aβ(1‐42); APPmut cells): 35%; reduction of Aβ(1‐42) in cell medium (Aβ(1‐42); APPmut cells): 35%; p62 degradation (LC3II and p62; APPwt cells, long‐term (24 h) exposure): favored p62 degradation
O=C1CCC(Cc2ccc(O)c(O)c2)O1 (centres unmarked) [Compound C2, 5‐(3ʹ,4ʹ‐dihydroxyphenyl)‐γ‐valerolactone] | 20 | no particular effect | evident increase | 16.2 ± 1.2 | 256 ± 14.4 | 85.8 ± 7.8 | 87.4 ± 7.9 |  | 238 ± 16.7 | 61.3 ± 5.7 | 114 ± 19.7 | 334 ± 28.9 | did not induce any change | number of APPmut viable cells (MTT) [3]: minor reduction; levels of LC3II (LC3II and p62; APPwt cells): increased; proteasome inhibition, comparison among the three tested compounds (20S proteasome): the least efficient
O=C1CC[C@H](Cc2ccc(O)c(O)c2)O1 [(R)‐5‐(3ʹ,4ʹ‐dihydroxyphenyl)‐γ‐valerolactone] |  |  |  |  |  |  |  |  |  |  |  |  |  | protection from increased production of reactive oxygen species (brown adipocytes): protect brown adipocytes
O=C1CCC(Cc2cc(O)cc(O)c2)O1 (centres unmarked) [5‐(3ʹ,5ʹ‐dihydroxyphenyl)‐γ‐valerolactone] |  |  |  |  |  |  |  |  |  |  |  |  |  | neurites outgrowth and elongation [4]: significantly induced; BBB permeability [5]: slightly higher
O=C1CCC(Cc2ccc(O)cc2)O1 (centres unmarked) [Compound C1, 5‐(4ʹ‐hydroxyphenyl)‐γ‐valerolactone] | 20 | no particular effect | evident increase | 120 ± 12.1 | 243 ± 20.1 | 62.8 ± 58.7 | 13 ± 2.1 | 30 | 126 ± 11.3 | 218 ± 19.6 | 41.8 ± 3.8 | 227 ± 13.2 | significantly reduced | levels of LC3II (LC3II and p62; APPmut cells): increased
